According to ChEMBL document CHEMBL1201862, “PubChem BioAssay data set” (2004):
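All cell lines were grown in 96-well plates and treated with compound for 48 hours. At the GI50, growth is halved.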 Calls of active or inactive are those of the source. No stated cut-off is given here; in the data, active = GI50 up to about 1.1 µM and inactive = higher.

Tests used:
Test in all cases: growth of human tumour cells (NCI), 48 h
[1] = tested on: MDA-N
[2] = tested on: T47D
[3] = tested on: DMS-273
[4] = tested on: HOP-18
[5] = tested on: LXFL 529
[6] = tested on: M19-MEL
[7] = tested on: SNB-78
[8] = tested on: XF498

| SMILES | GI50 [1] | GI50 [2] | other results |
| --- | --- | --- | --- |
| O=C1C2CCCCC2C(=O)N1n1c(Cc2ccccc2)n[nH]c1=O (stereo not drawn) | > 100 µM (inactive) | > 100 µM (inactive) |  |
| Cc1nc2cccc([N+](=O)[O-])c2n1CCCN(C)C | > 100 µM (inactive) | > 100 µM (inactive) |  |
| COc1ccc2c(c1)C(=O)Cc1ccccc1CC2 |  |  | GI50 [3]: > 100 µM (inactive); GI50 [4]: > 100 µM (inactive); GI50 [5]: > 100 µM (inactive); GI50 [6]: > 100 µM (inactive); GI50 [7]: > 100 µM (inactive); GI50 [8]: > 100 µM (inactive) |
| CN(CCCN1CCCC1)CCCN(C)C(=O)Cc1ccc(Cl)c(Cl)c1 | 4.22 µM (inactive) | 21.2 µM (inactive) |  |
| [N-]=[N+]=Nc1ccc(NCCCCCC(=O)ON2C(=O)CCC2=O)c([N+](=O)[O-])c1 |  | 62.1 µM (inactive) |  |
| CC1=NOC2(C1)C(=O)Nc1ccccc12 (stereo not drawn) | > 100 µM (inactive) | > 100 µM (inactive) |  |
| CC(Cc1ccc(O)cn1)(NC(=O)c1ccccc1)C(=O)O (stereo not drawn) | > 100 µM (inactive) |  |  |
| COCCOCOc1ccc(OCOCCOC)c2c1C(=O)c1ccccc1C2=O |  |  | GI50 [3]: 49.1 µM (inactive); GI50 [4]: 77.1 µM (inactive); GI50 [6]: 16.7 µM (inactive); GI50 [7]: > 63.1 µM (inactive); GI50 [8]: > 100 µM (inactive) |
| CN(C)CCCOc1nc2c(c(=O)n(C)c(=O)n2C)n1C.SC1=NC=NC2=NC=NC12 |  | 68.9 µM (inactive) |  |
| COc1cccc2c1C(=O)c1c(O)c3c(c(O)c1C2=O)C[C@@](O)(C(=O)CO)C[C@@H]3OC1CC2C(OCN3CN2COC2C(C)OC(O[C@H]4C[C@](O)(C(=O)CO)Cc5c(O)c6c(c(O)c54)C(=O)c4c(OC)cccc4C6=O)CC23)C(C)O1 (stereo partly drawn) | 0.0923 µM (active) | 0.0167 µM (active) |  |
| CC(C)(C)C1CC[C@H](O)[C@H]([C@@H](O)CC2CC(=O)N(c3ccccc3)C(=O)C2)C1 (stereo partly drawn) | > 100 µM (inactive) |  |  |
| COC(=O)/C=C1\C(CO[Si](C)(C)C(C)(C)C)OC(n2cc(C)c(=O)n(C)c2=O)C1O[Si](C)(C)C(C)(C)C (stereo not drawn) | > 100 µM (inactive) |  |  |
| Cn1nc(-c2ccccc2NC(=O)C(F)(F)F)c(=O)n(C)c1=S |  |  | GI50 [3]: 24.4 µM (inactive); GI50 [5]: 21.7 µM (inactive); GI50 [6]: 18.9 µM (inactive); GI50 [8]: 18.9 µM (inactive) |
| CCc1[nH]nc(C(N)=O)c1/N=N/N(C)C | > 100 µM (inactive) | 68.4 µM (inactive) |  |
| O=C(NCCCCN(CCCNC(=O)C(F)(F)F)Cc1ccc2ccccc2c1)C(F)(F)F | 17.4 µM (inactive) | 17.7 µM (inactive) |  |
| Cc1coc2c1C(=O)C(=O)c1c-2ccc2c1CCCC2(C)C [TANSHINONE IIA] | 1.37 µM (inactive) | 2.96 µM (inactive) |  |
| NC(=O)/C=C/C(=O)O |  |  | GI50 [3]: > 5000 µM (inactive); GI50 [4]: > 5000 µM (inactive); GI50 [5]: > 5000 µM (inactive); GI50 [6]: > 5000 µM (inactive); GI50 [7]: > 5000 µM (inactive) |

| SMILES | GI50 [1] | GI50 [2] | other results |
| --- | --- | --- | --- |
| CC(=O)OCCOCNC(=S)N/N=C(\C)c1cccs1 |  |  | GI50 [3]: > 100 µM (inactive); GI50 [4]: > 100 µM (inactive); GI50 [5]: > 100 µM (inactive); GI50 [6]: > 100 µM (inactive); GI50 [7]: > 100 µM (inactive); GI50 [8]: > 100 µM (inactive) |
| O=C(CNC(=O)OCc1ccccc1)Oc1ccccc1 |  |  | GI50 [3]: > 100 µM (inactive); GI50 [4]: > 100 µM (inactive); GI50 [5]: > 100 µM (inactive); GI50 [6]: > 100 µM (inactive); GI50 [7]: > 100 µM (inactive); GI50 [8]: > 100 µM (inactive) |
| C[N+]1([O-])C2CCC1CC(OC(=O)C(CO)c1ccccc1)C2 (stereo not drawn) | > 100 µM (inactive) | > 100 µM (inactive) |  |
| O=C1/C(=C\c2cccc(Oc3ccccc3)c2)SC(c2ccccc2)N1c1ccccc1Cl (stereo not drawn) | 20 µM (inactive) | 27.7 µM (inactive) |  |
| O=C(Cc1ccccc1)N/N=C(/CCN1CCCC1)CC(c1ccccc1)c1c(O)c2ccccc2oc1=O (stereo not drawn) | > 100 µM (inactive) |  |  |
| CCOC(=O)c1c(N)sc2c1C(C(=O)OCC)CC2 (stereo not drawn) | > 100 µM (inactive) | 18.2 µM (inactive) |  |
| CC(=O)Nc1ccc(/C=C(\NC(=O)c2ccccc2)c2nc3ccc4c(c3[nH]2)C(=O)c2ccccc2C4=O)cc1 |  |  | GI50 [3]: 32.7 µM (inactive); GI50 [4]: 11 µM (inactive); GI50 [5]: 28.8 µM (inactive); GI50 [6]: 78.3 µM (inactive); GI50 [7]: 58.9 µM (inactive); GI50 [8]: 84.1 µM (inactive) |
| CN(C)CC1CCC/C(=C\c2ccc(Cl)c(Cl)c2)C1=O (stereo not drawn) | 3.42 µM (inactive) | 2.31 µM (inactive) |  |
| N=C(N)SC(c1ccccc1)c1ccccc1 | 13.6 µM (inactive) | 6.32 µM (inactive) |  |
| CC(C)C1=CC23CCC4C(C)(C(=O)O)CCCC4(C)C2CC1C1C(=O)N(c2ccccc2N2C(=O)C4C5CC6C7(C)CCCC(C)(C(=O)O)C7CCC6(C=C5C(C)C)C4C2=O)C(=O)C13 (stereo not drawn) | 5 µM (inactive) | 19.9 µM (inactive) |  |
| C/C(=N\Nc1nc2ccccc2s1)c1ccncn1 | 9.44 µM (inactive) | 0.612 µM (active) |  |
| O=C(CSCC(=O)N/N=C\c1cc(Br)cc(Br)c1O)N/N=C\c1cc(Br)cc(Br)c1O |  | 32.1 µM (inactive) |  |
| O=S(=O)(N/C(=N\O)Nc1ccc(Cl)cc1)c1cc(C(F)(F)F)cc(C(F)(F)F)c1 | 21 µM (inactive) | 22.4 µM (inactive) |  |
| Cc1nc2ccccc2c(=O)n1NC(=O)c1ccccc1[N+](=O)[O-] |  | > 100 µM (inactive) |  |
| CC(NNC(=O)CC(=O)N(C(=O)c1ccccc1)c1ccc(Cl)cc1)c1cc2ccccc2oc1=O (stereo not drawn) | > 10 µM (inactive) | > 10 µM (inactive) |  |
| O=c1c2cccnc2[nH]c2ccc3scnc3c12 | > 10 µM (inactive) | > 10 µM (inactive) |  |
| c1ccc2c(c1)ccc1cc3cc(NCCCCNc4ccc5nc6c(ccc7ccccc76)cc5c4)ccc3nc12 |  | 0.455 µM (active) |  |
